Among the data in patent US20250177363A1, “SUBSTITUTED IMIDAZOPYRIDINYL COMPOUNDS USEFUL AS INHIBITORS OF TLR9” (Bristol-Myers Squibb Company, priority 2022, published 2025) are IC50 values, retold here.

What all share (type): cell-based
The target of one assay is T1, human TLR9 (Homo sapiens, UniProt Q9NR96).
T1 construct: host or cells: HEK-Blue cells
T1 sequence (Q9NR96 26-1032): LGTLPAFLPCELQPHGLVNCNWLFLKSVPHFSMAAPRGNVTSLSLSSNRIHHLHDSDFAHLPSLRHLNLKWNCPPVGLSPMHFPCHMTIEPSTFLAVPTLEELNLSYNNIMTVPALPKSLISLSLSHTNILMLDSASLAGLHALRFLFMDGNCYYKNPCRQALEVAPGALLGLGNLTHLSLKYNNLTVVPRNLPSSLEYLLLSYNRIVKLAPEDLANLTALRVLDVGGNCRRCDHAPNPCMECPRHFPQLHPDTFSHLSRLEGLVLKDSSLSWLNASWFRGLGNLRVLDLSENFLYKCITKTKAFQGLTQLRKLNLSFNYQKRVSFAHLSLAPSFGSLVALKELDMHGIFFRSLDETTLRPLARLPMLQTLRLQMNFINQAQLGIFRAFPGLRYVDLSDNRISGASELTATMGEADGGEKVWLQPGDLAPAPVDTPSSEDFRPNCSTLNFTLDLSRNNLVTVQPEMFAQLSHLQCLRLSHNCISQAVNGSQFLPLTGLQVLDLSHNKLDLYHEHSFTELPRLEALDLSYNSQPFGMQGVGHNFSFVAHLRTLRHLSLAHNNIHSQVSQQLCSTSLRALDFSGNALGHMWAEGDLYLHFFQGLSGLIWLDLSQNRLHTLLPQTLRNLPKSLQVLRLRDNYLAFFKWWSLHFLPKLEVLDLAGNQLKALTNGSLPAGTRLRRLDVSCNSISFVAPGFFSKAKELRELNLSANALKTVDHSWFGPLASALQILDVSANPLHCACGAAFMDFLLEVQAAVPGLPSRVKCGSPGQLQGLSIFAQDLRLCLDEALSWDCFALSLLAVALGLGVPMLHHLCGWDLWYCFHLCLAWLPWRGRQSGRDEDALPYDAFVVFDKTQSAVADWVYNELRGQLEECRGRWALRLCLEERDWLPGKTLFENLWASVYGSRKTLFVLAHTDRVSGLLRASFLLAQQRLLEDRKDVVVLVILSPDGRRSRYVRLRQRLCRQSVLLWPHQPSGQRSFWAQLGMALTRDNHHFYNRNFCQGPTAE
The assay can be described thus: TLR9 inhibition reporter assay (HEK-Blue, SEAP). The conditions noted are these: HEK-Blue cells overexpressing human TLR9, ligand ODN2006 200 nM, 22 hour incubation. On the procedure:
(§1) TLR7/8/9 Inhibition Reporter Assays
(§2) HEK-Blue™-cells (Invivogen) overexpressing human TLR7. TLR8 or TLR9 receptors were used for screening inhibitors of these receptors using an inducible SEAP (secreted embryonic alkaline phosphatase) reporter gene under the control of the IFN-β minimal promoter fused to five NF-κB and AP-1-binding sites. Cells are seeded into Greiner 384 well plates (15000 cells per well) that are pre dispensed (by ECHO) with testing compounds in DMSO to yield a final dose response concentration range of 0.85 nM-50 μM. After a 60 minute compound pre-treatment in 37 degree incubator, the cells are then stimulated with a TLR7 ligand (gardiquimod at a final concentration of 2.5 μM), TLR8 ligand (R848 at a final concentration of 14.25 μM) or TLR9 ligand (ODN2006 at a final concentration of 200 nM) to activate NF-κB and AP-1 which induce the production of SEAP. After a 22 hour incubation at 37° C., 5% CO2, SEAP levels are determined with the addition of HEK-Blue™ Detection reagent (Invivogen), a cell culture medium that allows for detection of SEAP, according to manufacturer's specifications. The percent inhibition is determined as the % reduction in the HEK-Blue signal present in […].
(In a reporter assay the amount or activity of a reporter protein is the signal.)

The target of a further assay is T2, human TLR7 (Homo sapiens, UniProt Q9NYK1).
T2 construct: host or cells: HEK-Blue cells
T2 sequence (Q9NYK1 27-1049): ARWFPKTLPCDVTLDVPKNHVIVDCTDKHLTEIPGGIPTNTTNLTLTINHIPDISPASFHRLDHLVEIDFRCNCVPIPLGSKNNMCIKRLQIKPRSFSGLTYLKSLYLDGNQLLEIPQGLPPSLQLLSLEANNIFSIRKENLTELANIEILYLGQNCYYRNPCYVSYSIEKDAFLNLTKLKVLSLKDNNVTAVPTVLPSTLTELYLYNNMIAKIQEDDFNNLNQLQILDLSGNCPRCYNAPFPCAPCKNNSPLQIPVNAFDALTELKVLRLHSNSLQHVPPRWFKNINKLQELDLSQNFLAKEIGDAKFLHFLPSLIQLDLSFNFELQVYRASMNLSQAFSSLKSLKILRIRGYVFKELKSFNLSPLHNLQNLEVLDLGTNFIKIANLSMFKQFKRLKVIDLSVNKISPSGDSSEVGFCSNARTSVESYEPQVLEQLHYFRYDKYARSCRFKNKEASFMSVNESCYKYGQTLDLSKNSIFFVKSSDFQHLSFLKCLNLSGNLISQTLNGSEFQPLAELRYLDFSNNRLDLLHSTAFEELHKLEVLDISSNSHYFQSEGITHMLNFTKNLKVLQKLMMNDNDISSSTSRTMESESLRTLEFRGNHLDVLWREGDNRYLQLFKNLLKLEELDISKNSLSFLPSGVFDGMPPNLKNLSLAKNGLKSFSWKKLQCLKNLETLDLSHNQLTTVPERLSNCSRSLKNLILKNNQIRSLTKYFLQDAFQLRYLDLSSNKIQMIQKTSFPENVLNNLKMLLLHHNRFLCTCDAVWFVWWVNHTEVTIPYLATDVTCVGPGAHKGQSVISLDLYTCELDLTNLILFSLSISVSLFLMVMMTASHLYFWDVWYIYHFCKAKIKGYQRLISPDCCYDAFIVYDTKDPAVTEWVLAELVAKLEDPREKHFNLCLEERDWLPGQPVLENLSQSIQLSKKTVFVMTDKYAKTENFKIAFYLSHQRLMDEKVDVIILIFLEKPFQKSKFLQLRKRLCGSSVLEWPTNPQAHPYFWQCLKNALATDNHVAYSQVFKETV
The experiment in a line: TLR7 inhibition reporter assay (HEK-Blue, SEAP). The note with it: HEK-Blue cells overexpressing human TLR7, ligand gardiquimod 2.5 μM, 22 hour incubation. On the procedure: as §1, §2

A further assay has as its target T3, human TLR8 (Homo sapiens, UniProt Q9NR97).
T3 construct: host or cells: HEK-Blue cells
T3 sequence (Q9NR97 27-1041): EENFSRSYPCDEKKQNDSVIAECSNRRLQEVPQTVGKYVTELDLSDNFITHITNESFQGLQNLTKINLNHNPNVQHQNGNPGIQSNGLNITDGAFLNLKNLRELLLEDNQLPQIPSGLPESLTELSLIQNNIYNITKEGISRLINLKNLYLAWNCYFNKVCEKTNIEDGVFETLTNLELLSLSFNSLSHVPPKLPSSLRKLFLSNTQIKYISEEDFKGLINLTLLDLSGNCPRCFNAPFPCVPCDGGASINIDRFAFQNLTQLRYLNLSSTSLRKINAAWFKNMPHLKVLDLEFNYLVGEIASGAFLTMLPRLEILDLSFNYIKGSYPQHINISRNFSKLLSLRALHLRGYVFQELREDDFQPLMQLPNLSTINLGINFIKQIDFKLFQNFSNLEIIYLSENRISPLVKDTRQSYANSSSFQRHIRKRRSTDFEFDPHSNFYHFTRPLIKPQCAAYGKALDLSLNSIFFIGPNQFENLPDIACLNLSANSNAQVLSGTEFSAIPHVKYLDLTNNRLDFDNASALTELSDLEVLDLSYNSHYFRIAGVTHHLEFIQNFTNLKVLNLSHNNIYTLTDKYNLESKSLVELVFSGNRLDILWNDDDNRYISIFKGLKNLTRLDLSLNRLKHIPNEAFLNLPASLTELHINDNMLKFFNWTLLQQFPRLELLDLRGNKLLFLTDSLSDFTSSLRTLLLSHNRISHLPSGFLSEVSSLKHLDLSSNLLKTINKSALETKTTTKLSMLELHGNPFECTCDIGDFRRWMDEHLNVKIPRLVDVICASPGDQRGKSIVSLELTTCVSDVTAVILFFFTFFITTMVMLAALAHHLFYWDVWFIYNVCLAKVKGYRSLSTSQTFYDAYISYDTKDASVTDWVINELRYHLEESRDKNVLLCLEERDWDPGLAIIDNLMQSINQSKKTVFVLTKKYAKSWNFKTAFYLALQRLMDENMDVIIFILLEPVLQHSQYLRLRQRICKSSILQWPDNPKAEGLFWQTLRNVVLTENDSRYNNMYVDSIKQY
The experiment in a line: TLR8 inhibition reporter assay (HEK-Blue, SEAP). The conditions noted are these: HEK-Blue cells overexpressing human TLR8, ligand R848 14.25 μM, 22 hour incubation. The protocol: as §1, §2

A word on the IC50: it is the midpoint of a concentration-inhibition curve. With `Cc1cc(C2CCN(C3CC4CCC(C3)N4C(C)C)CC2)nc2c1nc(-c1ccc(S(C)(=O)=O)cc1)n2C` (single isomer, unassigned) [Example 26, 5-(1-(8-isopropyl-8-azabicyclo[3.2.1]octan-3-yl)piperidin-4-yl)-3,7-dimethyl-2-(4-(methylsulfonyl)phenyl)-3H-imidazo[4,5-b]pyridine], the IC50 is 58 nM on human TLR9, 10000 nM at human TLR7 and > 50000 nM on human TLR8.

For the compound `Cc1cc(C2CCN(C3CC4CCC(C3)N4C(C)C)CC2)nc2c1nc(-c1ccc(S(C)(=O)=O)cc1)n2C` (single isomer, unassigned) [Example 27, 5-(1-(8-isopropyl-8-azabicyclo[3.2.1]octan-3-yl)piperidin-4-yl)-3,7-dimethyl-2-(4-(methylsulfonyl)phenyl)-3H-imidazo[4,5-b]pyridine], the IC50 stood at 300 nM against human TLR9, 3700 nM against human TLR7 and 24000 nM at human TLR8.

Compound `Cc1cc(C2CCN(C3CC4CCC(C3)N4CC(C)C)CC2)nc2c1nc(-c1ccc(S(C)(=O)=O)cc1)n2C` (single isomer, unassigned) [Example 29, 5-(1-(8-isobutyl-8-azabicyclo[3.2.1]octan-3-yl)piperidin-4-yl)-3,7-dimethyl-2-(4-(methylsulfonyl)phenyl)-3H-imidazo[4,5-b]pyridine] registered a half-maximal inhibitory concentration (IC50) at human TLR9 of 550 nM.

For `Cc1cc(-c2ccc(CN3CC4(C3)CN(CC(C)C)C4)cc2)nc2c1nc(-c1ccc(S(C)(=O)=O)cc1)n2C1CC1` [Example 4, 3-cyclopropyl-5-(4-((6-isobutyl-2,6-diazaspiro[3.3]heptan-2-yl)methyl)phenyl)-7-methyl-2-(4-(methylsulfonyl)phenyl)-3H-imidazo[4,5-b]pyridine], the results for the IC50 against human TLR9 and against human TLR7 were 71 nM and 2600 nM, respectively.

`Cc1cc(-c2ccc(CN3CC4(C3)CN(C3COC3)C4)cc2)nc2c1nc(-c1ccc(S(C)(=O)=O)cc1)n2C1CC1` [Example 6, 3-cyclopropyl-7-methyl-2-(4-(methylsulfonyl)phenyl)-5-(4-((6-(oxetan-3-yl)-2,6-diazaspiro[3.3]heptan-2-yl)methyl)phenyl)-3H-imidazo[4,5-b]pyridine]: the figures for the IC50 on human TLR9 and at human TLR7 were 730 nM and 15000 nM, respectively.

The compound `COc1ccc(-c2nc3ncc(C4CCN(C5CCN(CC(C)C)CC5)CC4)cc3[nH]2)cc1OC` [Example 12, 2-(3,4-dimethoxyphenyl)-6-(1′-isobutyl-[1,4′-bipiperidin]-4-yl)-1H-imidazo[4,5-b]pyridine] came in with an IC50 at human TLR9 of 74 nM.

Turning to `COc1cc(-c2nc3c(C)cc(-c4ccc(N5CCN(C(C)C)CC5)cc4)nc3n2C)cn2ncnc12` [Example 45, 5-(4-(4-isopropylpiperazin-1-yl)phenyl)-2-(8-methoxy-[1,2,4]triazolo[1,5-a]pyridin-6-yl)-3,7-dimethyl-3H-imidazo[4,5-b]pyridine], the IC50 on human TLR9 amounted to 140 nM; at human TLR7, 5800 nM.

On to `COc1ccc(-c2nc3ncc(-c4ccc(N5CCN(C(C)C)CC5)cc4)cc3n2C2CC2)cc1OC` [Example 50, 1-cyclopropyl-2-(3,4-dimethoxyphenyl)-6-(4-(4-isopropylpiperazin-1-yl)phenyl)-1H-imidazo[4,5-b]pyridine], for which the IC50 was 320 nM at human TLR9 and 3400 nM against human TLR8.

In the case of `CS(=O)(=O)c1ccc(-c2nc3ccc(-c4ccc(N5CCN(CCCN6CCOCC6)CC5)cc4)nc3n2C2CC2)cc1` [Example 56, 4-(3-(4-(4-(3-cyclopropyl-2-(4-(methylsulfonyl)phenyl)-3H-imidazo[4,5-b]pyridin-5-yl)phenyl)piperazin-1-yl)propyl) morpholine], the IC50 is 280 nM against human TLR9 and > 50000 nM against human TLR7.

On to `COc1ccc(-c2nc3c(C)cc(-c4ccc(N5CC6(C5)CN(C(C)C)C6)cc4)nc3n2C)cc1OC` [Example 59, 2-(3,4-dimethoxyphenyl)-5-(4-(6-isopropyl-2,6-diazaspiro[3.3]heptan-2-yl)phenyl)-3,7-dimethyl-3H-imidazo[4,5-b]pyridine], for which the IC50 at human TLR9 was found to be 860 nM; on human TLR7, 1100 nM.
